Data published in patent US6344342B1, “Human G protein coupled lysophosphatidic acid receptor” (SmithKline Beecham Corporation, priority 1997, dated 2002).

Test system: HOFNH30
Assay: Ca2+-mobilization FLIPR assay in RBL-2H3 cells stably expressing HOFNH30
Format: cell-based, human
Details: several clones of RBL-2H3 cells stably expressing HOFNH30, Fluo 3AM-loaded cells
Excerpt: One preferred screening method involves co-transfecting HEK-293 cells with a mammalian expression plasmid encoding a G-protein coupled receptor (GPCR), such as HOFNH30, along with a mixture comprised of mammalian expression plasmids cDNAs encoding Gα15 (Wilkie T. M. et al Proc Natl Acad Sci USA 1991 88:10049-10053), Gα16 (Amatruda T. T. et al Proc Natl Acad Sci USA 1991 8:5587-5591, and three chimeric G-proteins refered to as Gqi5, Gqs5, and Gqo5 (Conklin B R et al Nature 1993 363:274-276, Conklin B. R. et al Mol Pharmacol 1996 50:885-890). Following a 24 h incubation the transfected HEK-293 cells are plated into poly-D-lysine coated 96 well black/clear plates (Becton Dickinson, Bedford, Mass.). The cells are assayed on FLIPR (Fluorescent Imaging Plate Reader, Molecular Devices, Sunnyvale, Calif.) for a calcium mobilization response following addition of test ligands. […]
A microtitre plate based Ca2^+-miobilization FLIPR assay (Fluorescent Imaging Plate Reader, Molecular Devices, Sunnyvale, Calif.) was used for the functional identification of the ligand activating RBL-2H3 cells stably expressing HOFNH30. […] After initiation of the assay, fluorescence was read every 1s for 1 min and then every 3 s for the following 1 min.

## CCCCCCCC/C=C\CCCCCCCC(=O)OC[C@@H](O)COP(=O)(O)O [LPA, 1-Oleoyl-sn-glycero-3-phosphate]
  calcium mobilization response: dose dependent calcium mobilization response
